According to PubChem BioAssay AID1419 (Emory University Molecular Libraries Screening Center, 2008):
The source made the active and inactive calls. The rule behind the calls is not given here.

Assay: EBV protein-peptide binding inhibitors, dose response, biochemical, fluorescence polarization (AID 1419)
Settings: cell-free protein-peptide binding, 2 h; for fold change: measured here: P channel fold over control, at 54 µM

| SMILES | IC50 | fold change |
| --- | --- | --- |
| CC(=O)Oc1ccc(C(=O)Nc2cccc(C(=O)c3cccc(NC(=O)c4ccc(OC(C)=O)cc4)c3)c2)cc1 | > 54 µM (inactive) | 0.997 |
| Cc1cccc2cc(/C=C3\N=C(c4ccccc4)OC3=O)c(N3CCOCC3)nc12 | 13.2 µM | 12.5 |
| Cc1cc(C)c[n+](-c2nc3ccccc3nc2[N-]S(=O)(=O)c2ccc(Br)s2)c1 | 7.26 µM | 3.69 |
| COc1ccc(N=Cc2c(O)n(Cc3ccccc3)c(=S)[nH]c2=O)c(OC)c1 | > 54 µM (inactive) | 3.88 |
| Cn1c(=O)c(NCCc2ccccc2)c2c3c(cccc31)C(=O)c1ccccc1-2 | < 0.42 µM | 226 |
| O=C(CSc1ccccn1)Nc1ccc2c(c1)C(=O)c1ccccc1C2=O | 19.4 µM | 0.783 |
| Cc1cc(C=C2C(=O)NC(=S)NC2=O)c(C)n1-c1ccc2c(c1)OCO2 | 43.5 µM (inactive) | 2.39 |
| O=C(Nc1cccc(S(=O)(=O)NC2=NCCC2)c1)c1cc(-c2ccco2)nc2ccccc12 | 2.74 µM | 1.11 |
| COC(=O)c1cc2c(-c3ccccc3)c(C)c3ccccn3c-2c1C(=O)OC | 9.93 µM | 1.47 |
| O=c1nc2s/c(=C\c3ccc(-c4ccccc4[N+](=O)[O-])o3)c(=O)n2nc1-c1ccccc1 | < 0.42 µM | 9.05 |
| COc1ccccc1N1C(=O)C2C(C(=O)c3ccccc3)=NN(c3ccc(Br)cc3)C2C1=O (configuration not stated) | > 54 µM (inactive) | 16.6 |
| Cc1ccccc1N1C(=O)c2cccc3c(N(C)CCO)ccc(c23)C1=O | 0.74 µM | 14 |
| CN(C)c1ccc(/C=C2\CCC/C(=C\c3ccccc3)C2=O)cc1 | 14.5 µM | 10.6 |
| Fc1ccc(C2=CC(c3ccc(Br)o3)n3ncnc3N2)cc1 (configuration not stated) | 2.62 µM | 3.2 |
| CCN1CC=C2C(C#N)=C(N)C(C#N)(C#N)C(c3cc(Cl)ccc3Cl)C2C1 (configuration not stated) | > 54 µM (inactive) | 4.31 |
| CN1CCc2cc3c(c4c2[C@H]1[C@H](O)c1ccccc1-4)OCO3 | 10.3 µM | 2.19 |
| O=C1c2cccc3cc([N+](=O)[O-])cc(c23)C(=O)N1/N=C/c1ccc(O)cc1O | 10 µM | 0.933 |
| CN1C(=O)/C(=C\N2CCc3ccccc32)C(=O)NC1=S | > 54 µM (inactive) | 1.14 |
| CC(=O)OCCCNc1cc(Sc2nc3ccccc3s2)c2nonc2c1[N+](=O)[O-] | 9.79 µM | 4.44 |

| SMILES | IC50 | fold change |
| --- | --- | --- |
| N#C/C(=C\C1=C(N2CCOCC2)C(=C/c2cccc([N+](=O)[O-])c2)/CC1)C(=O)Nc1ccccc1F | 3.64 µM | 2.26 |
| CC1=C/C(=C\c2ccc(Br)o2)C(=O)O1 | > 54 µM (inactive) | 0.98 |
| CCOC(=O)c1ccc(N2C(=O)C3C(C2=O)C(C(=O)c2ccc(Cl)cc2)N2CCCC32)cc1 (configuration not stated) | 2.54 µM | 5.32 |
| CCOC(=O)c1[nH]cnc1N=Nc1c(O)ccc2ccccc12 | 7.35 µM | 2.68 |
| O=C(O)/C=C/c1cn(-c2ccccc2)nc1-c1ccc(-c2ccc([N+](=O)[O-])cc2)o1 | 5.25 µM | 2.34 |
| N#Cc1c(N)sc(=S)c2c1CCCC2 | > 54 µM (inactive) | 1.09 |
| Cc1c2ccccc2nc2c(F)c(NC(C)C)c(F)c(F)c12 | < 0.42 µM | 4.96 |
| O=C(OCCN1C(=O)c2cccc3c(N4CCOCC4)ccc(c23)C1=O)c1ccccc1Cl | 2.87 µM | 65.4 |
| CN(CCC#N)C(=O)COC(=O)c1c2c(nc3ccccc13)/C(=C/c1ccco1)CC2 | 3.18 µM | 2.86 |
| CCOC(=O)C1CCCN(c2nc3ccccc3nc2C(C#N)C(=O)NCc2ccccc2)C1 (configuration not stated) | 8.82 µM | 2.73 |
| CN(C)c1ccc(N=Cc2nc(-c3ccccc3)oc2O)cc1 | 6.01 µM | 21.1 |
| COc1ccc(-c2nnc(-c3cc4c(ccc5ccccc54)oc3=O)o2)cc1 | 12.9 µM | 4.21 |
| CC1=CC(=C(C#N)c2nc3ccccc3s2)C=C(C)N1Cc1ccco1 | 3.8 µM | 15.7 |
| CCOC(=O)CC(=O)CSc1nc(-c2cccnc2)ccc1C#N | > 54 µM (inactive) | 1.63 |
| N#CC1CC(c2ccc([N+](=O)[O-])cc2)=NN1c1ccc([N+](=O)[O-])cc1 (configuration not stated) | 3.86 µM | 6.23 |
| COc1ccc(N=C2S/C(=C\c3ccc(OCC(=O)O)cc3)C(=O)N2CCc2c[nH]c3ccccc23)cc1 | 1.88 µM | 1.05 |
| CC(C)c1nnc(N2C(=O)C(O)=C(C(=O)c3cccs3)C2c2ccccc2)s1 (configuration not stated) | < 0.42 µM | 4.97 |
| Cc1nn(-c2ccccc2)c2c1C(c1ccc(O)c(O)c1)N1C(=N2)C(Nc2ccccc2)=Nc2ccccc21 (configuration not stated) | 6.05 µM | 3.94 |
| CCOC(=O)C1CCN(C(=O)Nc2ccc3nc(-c4ccco4)c(-c4ccco4)nc3c2)CC1 | 5.89 µM | 2.82 |

| SMILES | IC50 | fold change |
| --- | --- | --- |
| CCn1c(COc2ccccc2C)nnc1SCC(=O)N1CCC(C)CC1 | > 54 µM (inactive) | 0.897 |
| CCN(CC)C(=O)CSc1nnc2nnc3cc(OC)ccc3n12 | < 0.42 µM | 7.06 |
| O=C(Nc1nnc(-c2ccccc2Cl)o1)c1cc2cc([N+](=O)[O-])ccc2s1 | > 54 µM (inactive) | 1.09 |
| CCOC(=O)/C(C#N)=C/c1ccc(N2CCN(Cc3ccccc3)CC2)cc1 | 40.3 µM (inactive) | 9.09 |
| CC(C)(C)c1ccc(C(=O)Nc2cccc3c(=O)[nH][nH]c(=O)c23)cc1 | 5.97 µM | 3.72 |
| Nc1cc(C(=O)O)c(N)c2c1C(=O)c1ccccc1C2=O | < 0.42 µM | 4.83 |
| CS(=O)(=O)n1nc(-c2ccc(Cl)cc2)nc1SCc1ccccc1 | > 54 µM (inactive) | 1.16 |
| CCN(CC)C(=O)COC(=O)c1cc(-c2ccco2)nc2ccccc12 | 28.4 µM | 1.44 |
| Cc1cccn2c(=O)c3cc(C(=O)NCc4ccco4)c(=N)n(CCOCCO)c3nc12 | 3.61 µM | 3.76 |
| COc1ccccc1N1C(C)=CC(=C(C#N)c2nc3ccccc3s2)C=C1C | 9.03 µM | 27.7 |
| O=C(CSc1nnc(SCc2ccccc2)s1)N/N=C/C=C/c1ccco1 | > 54 µM (inactive) | 1.04 |
| Cc1ccc(NC(=O)CN2C(=O)/C(=C3\SC(=S)N(C4CCS(=O)(=O)C4)C3=O)c3ccccc32)cc1 (configuration not stated) | 20.4 µM | 0.67 |
| COc1ccc(C2C=C(c3ccc(Cl)cc3)Nc3nc(NC(C)=O)nn32)cc1 (configuration not stated) | 5.59 µM | 3.32 |
| Cn1c(=O)c2[nH]c(-c3ccccc3Cl)c(O)c2n(C)c1=O | 1.99 µM | 2.61 |
| CCN(CC)CCN1C2=C(C(=O)CC(C)(C)C2)C(c2cccc(F)c2)C2=C1CC(C)(C)CC2=O | > 54 µM (inactive) | 1.03 |
| COc1ccccc1N1C(=O)C2C(C(=O)c3ccccc3)=NN(c3ccc(C)cc3)C2C1=O (configuration not stated) | 3.66 µM | 19.5 |
| O=C1NC(=O)N(c2ccc(F)cc2)C(=O)/C1=C/c1ccc2c(c1)CCCN2Cc1ccccc1 | < 0.42 µM | 38 |
| CC(C)(CCl)C(=O)Nc1ccc(OC(F)(F)F)cc1 | > 54 µM (inactive) | 1.14 |
